Patent US7232837B2, “Stereoisomers with high affinity for adrenergic receptors” (McNeil-PPC, Inc., priority 1999, dated 2007)

Key:
[1] = test system: New Zealand white rabbits; experiment: Intraocular pressure (IOP) after topical application to the rabbit eye; type: in vivo; settings: mean ± S.E.
Protocol: These diastereomers were administered topically as either 1% or 2% solutions in buffered saline. Pupillary diameter and IOP were measured in all animals over a six hour time period during the day to minimize diurnal variations in IOP and pupil diameter.
The experiments were performed on adult male New Zealand white rabbits weighing 3.0–6.0 kg. All rabbits were caged individually and maintained on a 12 hr/12 hr light/dark schedule with free access to food and water. All animal procedures were in conformity with the ARVO Resolution on the Use and Care of Animals in Research. All treated rabbits had served as controls by having received a saline treatment on a different day.
Only one eye received drug treatment. The contralateral eye served as a control. Saline (or PBS) and drug treated rabbits were treated and observed simultaneously. A single dose was given at time zero and IOP and pupil diameter measured at −1.0, −0.5, 0.5, 1, 3 and 5 hrs post-treatment.
IOP measurements were recorded with an Alcon Applanation Pneumotonograph (Surgical Products Division, Alcon Laboratories, Inc., Ft. Worth, Tex.) in rabbits placed in Lucite restraining cages. Initial topical application of a two drop 0.5% proparacaine HCl (Ophthetic®, Allergan Pharmaceuticals, Inc.) was performed on each rabbit.
Mean and Standard Error values were used to construct time-response and dose-response curves for the treated and contralateral eye of research rabbits. The data were analyzed statistically by an analysis of variance and a Bonferoni's test for significance. P<0.05 was the accepted level of significance.

Swiss-Webster mice [2] = experiment: Locomotor stimulant and depressant effects in mice; settings: i.p.
Protocol: Male Swiss-Webster mice (HSD ND4, Harlan Sprague Dawley, Houston, Tex.) aged 2–3 months were used in these studies. Each dose group consisted of 8 mice. The mice were housed 2 to 4 per cage in 30.4×22.9×15.2 cm clear polycarbonate cages with food and water available ad libitum for at least one week prior to locomotor activity testing. The colony was maintained at 23±1° C., on a normal light-dark cycle beginning at 0700 hr. All testing took place during the light portion of the light-dark cycle.
Horizontal (forward movement) locomotor activity was measured using a standardized, optical activity monitoring system [Model KXYZCM (16), Omnitech Electronics, Columbus, Ohio]. Activity was monitored in forty 40.5×40.5×30.5 cm clear acrylic chambers that where housed in sets of two within larger sound-attenuating chambers. A panel of 16 infrared beams and corresponding photodetectors were spaced 2 cm apart along the sides and 2.4 cm above the floor of each activity chamber. A 7.5-W incandescent light above each chamber provided dim illumination via a rheostat set to 20% of full scale. Fans provided an 80-dB ambient noise level within the chamber.
Triprolidine HCl was obtained from Research Biochemicals International, (Natick, Mass.).
Locomotor stimulant effects. […] (+)-Amphetamine was used as a positive control. The total horizontal distance traversed (cm) was recorded at 10 minute intervals for a 2-hour session. Separate groups of 8 mice were assigned to each dose or saline group, and dose-effect testing continued for each compound until maximal stimulant or depressant effects could be estimated. A separate control group was tested along with each compound.
Using TableCurve 2D v2.03 (Jandel Scientific), the mean average total distance traversed (cm/10 min) for that period was fit to a 3-parameter logistic peak function of log10 dose (with the constant set to the mean of the saline group), and the maximum effect estimated from the resulting curve. The […] (dose producing ½ maximal stimulant activity) was estimated from a linear regression against log10 dose of the ascending portion of the dose-effect curve. The stimulant efficacy was the peak effect of the compound (cm/10 min) as estimated from the logistic peak function, minus the mean control distance traveled (cm/10 min), and was expressed for each stimulant compound as a ratio to the stimulant efficacy determined for (+)-amphetamine.
The mean average total distance traversed (cm/10 min) for that period were fit to a linear function of log10 dose of the descending portion of the dose-effect curve. […] Efficacy was the ratio of maximal depressant effect to maximum possible depression for each compound (mean average total distance of the control group minus the lowest mean total distance, expressed as a ratio to the control group total distance).
(§1) Statistical analysis. Time course data for each compound were considered in 2-way analyses of variance with dose as a between-group and time as a within-group factor. The dose-effect data were considered in 1-way analyses of variance, and planned individual comparisons were conduced between each dose and the saline control group. Interaction studies were considered in 2-way analyses of variance, with Pretreatment and Test dose as the factors.

Swiss-Webster mice [3] = experiment: H1 receptor antagonist (triprolidine) interaction study, locomotor activity in mice; settings: mice pretreated with triprolidine 20 min before the test compound
Protocol: H1 receptor antagonist interaction studies. […] The mice were immediately placed in the activity testing chamber for a 2-h session. Doses of the test compound were selected from the ascending or descending time of the dose-effect curve determined from the compound-alone studies. Eight mice were tested for each triprolidine/test compound combination.
as §1

Dog = experiment: Dosage which raised mean arterial pressure 10%, dog; type: in vivo
Rat = experiment: Dosage which raised mean arterial pressure 10%, rat; type: in vivo

CNC[C@H](O)c1cccc(O)c1 [(−)-Phenylephrine, (−)-phenylephrine]
IOP ([1]; 1% topical, drug treated eye (T), 0.5 hr): 24 ± 0.6 mmHg
IOP ([1]; 1% topical, drug treated eye (T), 1 hr): 24 ± 1.0 mmHg
IOP ([1]; 1% topical, drug treated eye (T), 3 hr): 23 ± 1.5 mmHg
IOP ([1]; 1% topical, drug treated eye (T), 5 hr): 21 ± 1.9 mmHg
IOP ([1]; 1% topical, drug treated eye (T), −0.5 hr (pre-treatment)): 16 ± 1.5 mmHg
IOP ([1]; 1% topical, drug treated eye (T), −1 hr (pre-treatment)): 20 ± 1.6 mmHg
IOP ([1]; 1% topical, untreated contralateral eye (U), 0.5 hr): 18 ± 1.6 mmHg
IOP ([1]; 1% topical, untreated contralateral eye (U), 1 hr): 19 ± 1.3 mmHg
IOP ([1]; 1% topical, untreated contralateral eye (U), 3 hr): 20 ± 1.9 mmHg
IOP ([1]; 1% topical, untreated contralateral eye (U), 5 hr): 19 ± 1.7 mmHg
IOP ([1]; 1% topical, untreated contralateral eye (U), −0.5 hr (pre-treatment)): 15 ± 2.1 mmHg
IOP ([1]; 1% topical, untreated contralateral eye (U), −1 hr (pre-treatment)): 16 ± 1.0 mmHg
IOP ([1]; 2% topical, drug treated eye (T), 0.5 hr): 12 ± 0.8 mmHg
IOP ([1]; 2% topical, drug treated eye (T), 1 hr): 14 ± 2.0 mmHg
IOP ([1]; 2% topical, drug treated eye (T), 3 hr): 16 ± 0.8 mmHg
IOP ([1]; 2% topical, drug treated eye (T), 5 hr): 14 ± 1.3 mmHg
IOP ([1]; 2% topical, drug treated eye (T), −0.5 hr (pre-treatment)): 15 ± 1.5 mmHg
IOP ([1]; 2% topical, drug treated eye (T), −1 hr (pre-treatment)): 18 ± 1.6 mmHg
IOP ([1]; 2% topical, untreated contralateral eye (U), 0.5 hr): 20 ± 2.0 mmHg
IOP ([1]; 2% topical, untreated contralateral eye (U), 1 hr): 20 ± 2.4 mmHg
IOP ([1]; 2% topical, untreated contralateral eye (U), 3 hr): 14 ± 1.7 mmHg
IOP ([1]; 2% topical, untreated contralateral eye (U), 5 hr): 14 ± 2.0 mmHg
IOP ([1]; 2% topical, untreated contralateral eye (U), −0.5 hr (pre-treatment)): 17 ± 1.9 mmHg
IOP ([1]; 2% topical, untreated contralateral eye (U), −1 hr (pre-treatment)): 17 ± 1.9 mmHg
Depression Time: 30-min period following injection in which the maximal depression occurred (Swiss-Webster mice [2]): 0 to 30 min
Stimulation Time: 30-min period following injection in which the maximal stimulant effect occurred (Swiss-Webster mice [2]): 60 to 90 min
locomotor depressant effects, time course (result in words) (Swiss-Webster mice [2]): dose-dependent locomotor depression within 10 to 20 minutes following injection
Depression Potency: dose resulting in ½ the maximal depressant effect (ID50) (Swiss-Webster mice [2]; — denotes absence of significant effect): 2.3 mg/kg
effect of triprolidine pretreatment on stimulant or depressant effects (Swiss-Webster mice [3]): failed to show significant modification of stimulant or depressant effects
Dosage of Enantiomer which raised mean arterial pressure 10%, Dog (Dog): 10 µg/kg
Dosage of Enantiomer which raised mean arterial pressure 10%, Rat (Rat): 3 to 5 µg
